Data published in patent US11213516B2, “Intravaginally applicable devices comprising antiviral compounds” (AICURIS ANTI-INFECTIVE CURES GMBH, priority 2017, dated 2022).
Values joined by “and” are separate entries in the source; they are usually repeats but may differ in a detail not shown here. Identical values can stand only once.

Columns and labels:
[1] = In vitro release from matrix-type silicone elastomer vaginal rings; format: physicochemical; details: isopropanol/H2O, 37° C.
Method: HPLC analysis was conducted using an Agilent 1200 Series HPLC system, consisting of a quaternary HPLC pump, an auto sampler, an in-line Degasser AF Unit, a dual λ absorbance detector, and a column heater. A BDS Hypersil C18 (Thermo Scientific) column (length 150 mm, id 4.6 mm, particle size 3 μm) was used. The mobile phase comprised 45% of 1% w/v glacial acetic acid and 55% methanol pumped isocratically at a flow rate of 1 mL/min. The sample injection volume was 25 μL, the column temperature was 25° C., and detection was performed at 280 nm. Run time for the method was 5 min
Human-sized (56 mm or ×7.6 mm id), matrix-type, silicone elastomer vaginal rings containing either 25 mg or 400 mg of Pritelivir were manufactured by reaction injection molding of drug+silicone mixes. For the 25 mg rings, 272 mg Pritelivir free base or Pritelivir mesylate salt was weighed into a polypropylene Speedmixer container along with DDU-4320 silicone elastomer Part A (40 g) and Part B (40 g). After mixing (Speedmixer DAK 150 FVZ-K; 3000 rpm for 30 sec), the mixture was transferred to a 60 mL disposable plastic syringe and injected into pre-heated (90° C.) custom, two-cavity ring molds fitted to a laboratory-scale injection molding machine. After 3 minutes, the cured rings were removed from the molds. For the 400 mg rings, 4325 mg of Pritelivir free base or Pritelivir mesylate salt was weighed. Four samples of each ring type were manufactured.
Pritelivir rings were individually placed into stoppered glass flasks containing 100 mL isopropanol/H2O. The flasks were placed in a shaking orbital shaker (37° C., 60 rpm). The release medium was sampled (˜5 mL) every 24 h over a fourteen day period, with complete replacement of the 100 mL release medium at each sampling point to maintain sink conditions. Quantification of Pritelivir free base or Pritelivir mesylate salt concentrations in the samples was performed using the HPLC-UV method.

[2] = Vaginal tissue (biopsy) concentration after intravaginal administration of vaginal ring; format: in vivo, Cynomolgus monkeys; details: 6-fold higher dose; Day 28
Method: (§1) The study was performed in four single dose phases with 28-day sampling period after Phases 1 and 2 (7-day washout period between doses). Vaginal rings were investigated for Pritelivir free base and Pritelivir mesylate salt at two dose levels per formulation. The test items were applied as vaginal ring in Phases 1 and 2 to female monkeys. The study design is below in the Table 3.
(§2) Vulval and vaginal biopsies were taken from all animals at the following times in relation to dosing.
(§3) For the sampling biopsies were taken with a suitable biopsy instrument. Biopsy samples were snap frozen on dry ice following collection and stored deep frozen (−20° C. or below) until analysis.
(§4) After suitable dilution, plasma and vaginal samples were analyzed on UPLC system Waters Acquity UPLC-HSS PFP column with 1.8 μm particles (100×2.1 mm) by gradient elution using 0.1% formic acid and methanol containing 0.1% formic acid. For detection, a time-of-flight mass spectrometer (Xevo GS-2 QTOF, Waters) was used operating in positive ionization mode (MSe analysis). The samples were analyzed for their content of Pritelivir free base.
Vaginal and vulval biopsies were taken 28 Days after administration of intravaginal rings. As biopsies were not weighed prior extraction, weights were estimated based on data from similar investigations using the same settings for biopsies. […]

[3] = Vulval tissue (biopsy) concentration after intravaginal administration of vaginal ring; format: in vivo, Cynomolgus monkeys; details: ring 40 mg free base; Phase 1; Day 28; per animal; biopsy weight estimated
Method: as §1, §2, §3, §4
Vaginal and vulval biopsies were taken 28 Days after administration of intravaginal rings. As biopsies were not weighed prior extraction, weights were estimated based on data from similar investigations using the same settings for biopsies. From this study minimum, maximum, and mean biopsy weight was used for the calculation. These biopsy weights ranged from 0.7 to 6.3 mg, mean 2.95 mg. For all calculations it was assumed that 1 kg tissue is equal to 1 L water.

For `Cc1nc(N(C)C(=O)Cc2ccc(-c3ccccn3)cc2)sc1S(N)(=O)=O` [Pritelivir free base], the “Cumulative Day 14 release” value ([1]; 25 mg matrix-type ring) was 604.13 µg, the “Mean Day 1 release” value ([1]; 25 mg matrix-type ring) was 122.17 µg and the “Mean Day 14 release” value ([1]; 25 mg matrix-type ring) was 24.77 µg. The Release rate ([1]; 25 mg matrix-type ring) was 177.0 µg/day, the “Cumulative Day 14 release” value ([1]; 400 mg matrix-type ring) was 2,495.52 μg and the “Mean Day 1 release” value ([1]; 400 mg matrix-type ring) was 443.45 µg. For the same compound, the “Mean Day 14 release” value ([1]; 400 mg matrix-type ring) was 102.16 µg, the Release rate ([1]; 400 mg matrix-type ring) was 752.5 µg/day and the “Increase of vaginal tissue concentrations, Phase 2 vs Phase 1” value [2] was 2 fold. For the same compound, the “Vulval tissue concentration of Pritelivir free base, Max” value [3] was <2.0 µg/g and 0.134 µg/g and 0.742 µg/g, the “Vulval tissue concentration of Pritelivir free base, Mean” value [3] was <2.0 µg/g and 0.0318 µg/g and 0.176 µg/g and the “Vulval tissue concentration of Pritelivir free base, Min” value [3] was <2.0 µg/g and 0.0149 µg/g and 0.0825 µg/g.
